Laboratory results published in patent US8247211B2, “Glycopeptide antibiotics” (American Cyanamid Company, priority 2001, dated 2012).

What was measured:
[1] = test system: Enterococcus sp.; test: In vitro antibacterial evaluation: minimum inhibitory concentration (MIC), broth dilution method; type: cell-based; details: broth dilution, 5×10^5 CFU/mL, 18 hours at 35° C.
Procedure, shortened: (§1)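 Susceptibility determined by NCCLS-recommended broth dilution (M7-A2), Muller-Hinton II […]. Concentration span 64-0.06 μg/mL, inoculum 5×10^5 CFU/mL. Isolates include strains resistant to methicillin, penicillin and/or vancomycin.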

[2] = test system: Escherichia coli; test: as above; type: cell-based; details: 5×10^5 CFU/mL, 18 hours at 35° C.
Procedure, shortened: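 Using Muller-Hinton II […] and an inoculum of 5×10^5 CFU/mL, antibiotic dilutions from 64 down to 0.06 μg/mL were tested following NCCLS M7-A2. The MIC is the lowest concentration inhibiting growth, including in methicillin-, penicillin- or vancomycin-resistant clinical isolates.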

[3] = test system: Staphylococcus sp.; test: as above; type: cell-based; details: for MIC Staphylococcus aureus (ATCC 29213): strain ATCC 29213; for MIC Staphylococcus aureus (GC 1131): strain GC 1131; for MIC Staphylococcus aureus (GC 3051): strain GC 3051; for MIC Staphylococcus aureus (GC 3053): strain GC 3053; for MIC Staphylococcus aureus (GC 4541): strain GC 4541; for MIC Staphylococcus aureus (GC 4542): strain GC 4542; for MIC Staphylococcus aureus-SMITH (GC 4543): strain GC 4543; for MIC Staphylococcus aureus (GC 4544): strain GC 4544; for MIC Staphylococcus aureus (GC 4545): strain GC 4545; for MIC Staphylococcus haemolyticus (GC 4546): strain GC 4546; for MIC Coagulase Negative Staphylococcus (GC 4547): strain GC 4547; for MIC Coagulase Negative Staphylococcus (GC 4548): strain GC 4548; for MIC Coagulase Negative Staphylococcus (GC 4549): strain GC 4549; for MIC Coagulase Negative Staphylococcus (GC 4551): strain GC 4551; for MIC Coagulase Negative Staphylococcus (GC 6257): strain GC 6257
Procedure, shortened: as §1

[4] = test system: Streptococcus sp.; test: as above; type: cell-based; details: broth dilution, 5×10^5 CFU/mL, 18 hours at 35° C.
Procedure, shortened: as §1

[5] = test system: Enterococcus faecalis (GC 6189), vancomycin resistant strain; test: Acute lethal infection in mice (ED50); type: in vivo; details: female CD-1 mice, intraperitoneal challenge, intravenous dose 30 min. after infection, 7 day survival ratios
Procedure, shortened: (§2)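 IP bacterial challenge, female CD-1 mice; inoculum lethal to untreated controls in 24-48 hr. IV dosing in saline or 5% dextrose 30 min post-infection, 5 mice/dose. ED50 from 7-day survival, 3 tests pooled.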

[6] = test system: Staphylococcus aureus-SMITH (GC 4543); test: Acute lethal infection in mice (ED50); type: in vivo; details: female CD-1 mice, intraperitoneal challenge, intravenous dose 30 min. after infection, 7 day survival ratios
Procedure, shortened: as §2

[7] = broth dilution, 18 hours at 35° C.

CC(c1ccccc1)C1NC(=O)CNC(=O)C(CO)NC(=O)C(C(O)C2CNC(=N)N2C2OC(CO)C(O)C(O)C2O)NC(=O)C(C(O)C2CNC(=N)N2)NC(=O)C(Cc2ccc(OC3OC(CO)C(OC4OC5COC(Cc6ccc(F)cc6)OC5C(O)C4O)C(O)C3O)cc2)NC1=O (stereo not drawn) [Example 121, Cyclo[glycyl-β-methylphenylalanyl-O-[4-O-[4,6-O-(4-fluorophenethylidene)hexopyranosyl]-hexopyranosyl]tyrosyl-3-(2-iminoimidazolidin-4-yl)seryl-3-(3-hexopyranosyl-2-iminoimidazolidin-4-yl)serylseryl]]
0.25 µg/mL: MIC Streptococcus agalactiae (GC 4564) [4] | MIC Streptococcus pyogenes (GC 4563) [4]
0.5 mg/kg: median effective dose (ED50), Enterococcus faecalis (GC 6189) [5]
4 µg/mL: MIC Enterococccus avium (GC 4558) [1] | MIC Enterococccus faecalis (GC 2691) [1] | MIC Enterococccus faecalis (GC 4553) [1]
0.32 mg/kg: median effective dose (ED50), Staphylococcus aureus-SMITH (GC 4543) [6]
1 µg/mL: MIC Escherichia coli (GC 4560) [2] | MIC Staphylococcus aureus (ATCC 29213) [3] | MIC Staphylococcus aureus (ATCC 29213) [3, 7] | MIC Staphylococcus aureus (GC 3051) [3] | MIC Staphylococcus aureus (GC 3051) [3, 7] | MIC Staphylococcus aureus (GC 3053) [3] | MIC Staphylococcus aureus (GC 3053) [3, 7] | MIC Staphylococcus aureus (GC 4541) [3] | MIC Staphylococcus aureus (GC 4541) [3, 7] | MIC Staphylococcus aureus (GC 4542) [3] | MIC Staphylococcus aureus (GC 4542) [3, 7] | MIC Staphylococcus aureus-SMITH (GC 4543) ([3]; 18 hours at 35° C.) | MIC Staphylococcus aureus-SMITH (GC 4543) [3, 7] | MIC Staphylococcus haemolyticus (GC 4546) [3] | MIC Staphylococcus haemolyticus (GC 4546) [3, 7] | MIC Coagulase Negative Staphylococcus (GC 4547) [3] | MIC Coagulase Negative Staphylococcus (GC 4547) [3, 7] | MIC Coagulase Negative Staphylococcus (GC 6257) [3] | MIC Coagulase Negative Staphylococcus (GC 6257) [3, 7]
32 µg/mL: MIC Escherichia coli (ATCC 25922) [2] | MIC Escherichia coli (GC 4559) [2]
2 µg/mL: MIC Enterococccus faecalis (ATCC 29212) [1] | MIC Enterococccus faecalis (GC 3059) [1] | MIC Enterococccus faecalis (GC 4552) [1] | MIC Enterococccus faecalis (GC 4554) [1] | MIC Enterococccus faecalis (GC 6189) [1] | MIC Enterococccus faecium (GC 2243) [1] | MIC Enterococccus faecium (GC 4556) [1] | MIC Enterococccus faecium (GC 4557) [1] | MIC Enterococcus faecalis (GC 2242) [1] | MIC Staphylococcus aureus (GC 1131) [3] | MIC Staphylococcus aureus (GC 1131) [3, 7] | MIC Staphylococcus aureus (GC 4544) [3] | MIC Staphylococcus aureus (GC 4544) [3, 7] | MIC Staphylococcus aureus (GC 4545) [3] | MIC Staphylococcus aureus (GC 4545) [3, 7] | MIC Coagulase Negative Staphylococcus (GC 4551) [3] | MIC Coagulase Negative Staphylococcus (GC 4551) [3, 7]
<0.06 µg/mL: MIC Streptococcus pneumoniae (GC 1894) [4] | MIC Streptococcus pneumoniae (GC 4565) [4] | MIC Streptococcus pneumonine (ATCC 6301) [4]
0.5 µg/mL: MIC Coagulase Negative Staphylococcus (GC 4548) [3] | MIC Coagulase Negative Staphylococcus (GC 4548) [3, 7] | MIC Coagulase Negative Staphylococcus (GC 4549) [3] | MIC Coagulase Negative Staphylococcus (GC 4549) [3, 7]
